PubChem BioAssay (NCI)
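48-hour exposure; five concentrations; linearly interpolated endpoints. The concentration for full growth arrest is given as TGI.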

Experiments:
Test in all cases: DTP human tumour cell line panel, 48 h
IGROV1 ovarian = tested on: IGROV1 ovarian
SNB-75 CNS = tested on: SNB-75 CNS
SN12C renal = tested on: SN12C renal
HL-60(TB) leukemia = tested on: HL-60(TB) leukemia
NCI-H226 lung = tested on: NCI-H226 lung
786-0 renal = tested on: 786-0 renal
HCC-2998 colon = tested on: HCC-2998 colon
CCRF-CEM leukemia = tested on: CCRF-CEM leukemia
SF-268 CNS = tested on: SF-268 CNS
HOP-92 NSCLC = tested on: HOP-92 NSCLC
HCT-15 colon = tested on: HCT-15 colon
BT-549 breast = tested on: BT-549 breast
NCI-H460 lung = tested on: NCI-H460 lung
TK-10 renal = tested on: TK-10 renal
MALME-3M melanoma = tested on: MALME-3M melanoma
EKVX NSCLC = tested on: EKVX NSCLC
SK-MEL-2 melanoma = tested on: SK-MEL-2 melanoma
KM12 colon = tested on: KM12 colon

Structure (SMILES) | TGI (IGROV1 ovarian) [µM] | TGI (SNB-75 CNS) [µM] | TGI (SN12C renal) [µM] | TGI (HL-60(TB) leukemia) [µM] | TGI (NCI-H226 lung) [µM] | TGI (786-0 renal) [µM] | TGI (HCC-2998 colon) [µM] | TGI (CCRF-CEM leukemia) [µM] | TGI (SF-268 CNS) [µM] | TGI (HOP-92 NSCLC) [µM] | TGI (HCT-15 colon) [µM] | TGI (BT-549 breast) [µM] | TGI (NCI-H460 lung) [µM] | TGI (TK-10 renal) [µM] | TGI (MALME-3M melanoma) [µM] | TGI (EKVX NSCLC) [µM] | TGI (SK-MEL-2 melanoma) [µM] | TGI (KM12 colon) [µM]
CC(=O)OCc1cn(S(=O)(=O)c2ccc(C)cc2)cn1 | > 100 | > 100 | > 100 | > 100 | > 100 | > 100 | > 100 | > 100 | 97.5 | > 100 | > 100 | > 100 | > 100 | > 100 | > 100 | > 100 | – | –
CCc1n[nH]c(=O)n1NC(=O)/C=C\C(=O)O | > 100 | > 100 | > 100 | > 100 | > 100 | > 100 | > 100 | > 100 | > 100 | – | > 100 | > 100 | > 100 | > 100 | > 100 | > 100 | > 100 | –
NC(CCCCNC(=O)C(Cc1ccccc1)NC(=O)OCc1ccccc1)C(=O)NC(CCCCNC(=O)C(Cc1ccccc1)NC(=O)OCc1ccccc1)C(=O)NC(CCCCNC(=O)C(Cc1ccccc1)NC(=O)OCc1ccccc1)C(=O)NC(CCCCNC(=O)C(Cc1ccccc1)NC(=O)OCc1ccccc1)C(=O)NC(CCCCNC(=O)C(Cc1ccccc1)NC(=O)OCc1ccccc1)C(=O)NC(CCCCNC(=O)C(Cc1ccccc1)NC(=O)OCc1ccccc1)C(=O)O (stereo not drawn) | > 100 | > 100 | > 100 | > 100 | > 100 | > 100 | > 100 | > 100 | > 100 | – | > 100 | > 100 | > 100 | > 100 | > 100 | – | > 100 | –
Cc1ccc(C)c(NC(=O)C(Cc2c[nH]c3ccccc23)NC(=O)OCc2ccccc2)c1 (stereo not drawn) | 70.8 | 27.9 | > 100 | 15.4 | – | 39.3 | – | 12.2 | > 100 | 57.5 | > 100 | 44.8 | 44 | 39.2 | 98.9 | 49 | 45.9 | 69.7
[N-]=[N+]=NC1=C(c2ccccc2)C(=O)c2cccc3cccc1c23 | 95.2 | 76.5 | > 100 | > 100 | – | 88.1 | > 100 | > 100 | > 100 | 91.1 | > 100 | 34.1 | 28.7 | 74.6 | > 100 | – | > 100 | > 100
Cc1cc(-c2nc3cc(F)c(F)cc3s2)ccc1N | – | > 92.9 | > 100 | > 100 | – | > 100 | > 100 | > 100 | > 100 | > 100 | > 100 | > 100 | > 100 | – | > 100 | > 100 | > 100 | > 100
CCCCCCCC/C=C/CCCCCCCC1CC(O)C(=O)O1 (stereo not drawn) | > 100 | > 100 | – | 88.3 | > 100 | > 100 | > 100 | > 100 | > 100 | 90.9 | > 100 | > 100 | > 100 | > 100 | > 100 | > 100 | – | –
Cc1nc(C)c(N2CCN(C#N)CC2)c(=O)[nH]1 | > 100 | > 100 | > 100 | > 100 | > 100 | > 100 | > 100 | > 100 | > 100 | > 100 | > 100 | > 100 | > 100 | > 100 | > 100 | > 100 | – | > 100
CC(=O)OC1COC(Nn2c(=O)[nH]c3ccccc3c2=O)C(OC(C)=O)C1OC(C)=O (stereo not drawn) | > 100 | > 100 | > 100 | > 100 | > 100 | > 100 | – | > 100 | > 100 | > 100 | > 100 | > 100 | > 100 | > 100 | – | > 100 | > 100 | > 100
COc1c(O)cc(C(=O)O[C@@H]2Cc3c(O)cc(O)cc3O[C@@H]2c2cc(O)c(O)c(O)c2)cc1O | > 100 | – | 37.3 | 63 | – | 33.8 | > 100 | – | 46.7 | > 100 | 86.2 | 65.2 | 66.7 | > 100 | > 100 | 61.6 | > 100 | 39
CCOP(=O)(OCC)/C(C#N)=C/c1c(C)[nH]c2ccccc12 | > 100 | > 100 | > 100 | > 100 | > 100 | > 100 | > 100 | > 100 | > 100 | > 100 | > 100 | > 100 | > 100 | > 100 | > 100 | > 100 | – | > 100
CCn1cnc2c(NC(C)=O)ncnc21 | > 100 | > 100 | > 100 | – | > 100 | > 100 | > 100 | > 100 | – | > 100 | > 100 | > 100 | > 100 | > 100 | > 100 | > 100 | > 100 | > 100
Cc1nn(C)c2c1C(=O)N(C)CC(=O)N2C | > 100 | > 100 | > 100 | > 100 | – | > 100 | > 100 | > 100 | > 100 | > 100 | > 100 | > 100 | > 100 | > 100 | > 100 | > 100 | – | > 100
COc1cc(/C=C(\C#N)c2ccccn2)cc(Br)c1O | > 100 | > 100 | > 100 | > 100 | > 100 | > 100 | > 100 | > 100 | > 100 | – | > 100 | > 100 | > 100 | > 100 | > 100 | > 100 | > 100 | > 100
